SMILES strings stand for the structures. Inconclusive results are not listed.

The experiment concerns Drosophila SCA1 polyglutamine model, toxicity suppression. Kind of experiment: Drosophila SCA1 whole organism dose response for polyglutamine toxicity reduction (AID 1595).
For the compound `CC(N)CCCC(C)(C)O` (centres undefined), the EC50 (usually the concentration giving half of the maximal effect) is 50 nM. For the compound `CN1CCOC(c2ccccc2)c2ccccc2C1` (centres undefined), the half-maximal effective concentration (EC50) was 50 nM.

On to `CC(=O)OCC(=O)[C@H]1CCC2C3CCC4=CC(=O)CC[C@]4(C)C3CC[C@@]21C` (some centres undefined), for which the EC50 is 3000 nM.

On to `N#C/C(=C\c1ccc(O)cc1)C(=O)O`, for which the EC50 was 50 nM.

As to `C[C@@H]1CC2C3CCC4=CC(=O)C=C[C@]4(C)[C@@]3(F)[C@@H](O)C[C@]2(C)[C@@]1(O)C(=O)COP(=O)(O)O` (some centres undefined), the EC50 was 750 nM. In the case of `C[N+](C)(C)CCOC(N)=O`, the EC50 is 3000 nM. Take `C[C@@H]1O[C@@H](O[C@H]2[C@H](Oc3cc(O)c4c(c3)O[C@H](c3ccc(O)cc3)CC4=O)O[C@H](CO)[C@@H](O)[C@@H]2O)[C@H](O)[C@H](O)[C@H]1O`: the EC50 was 5000 nM.

`Cc1cc(C(C)(C)C)cc(C)c1CC1=NCCN1`: the EC50 is 250 nM. With `C=C1C2CC[C@H]3[C@]4(C)C[C@H](OC5OC(CO)C(OS(=O)(=O)O)C(OS(=O)(=O)O)C5OC(=O)CC(C)C)C[C@@H](C(=O)O)[C@H]4CC[C@]3(C2)[C@H]1O` (some centres undefined), the EC50 was 225 nM. For `NC(Cc1cc(I)c(Oc2ccc(O)c(I)c2)c(I)c1)C(=O)O` (centres undefined), the EC50 was 5000 nM. On to `NS(=O)(=O)c1cc(C2(O)NC(=O)c3ccccc32)ccc1Cl` (centres undefined), for which the EC50 was 5000 nM. `C[N+](C)(C)CC(=O)[O-]`: the EC50 is 3000 nM.

On to `OCC(S)CS` (centres undefined), for which the 50% effective concentration (EC50) was 300 nM. As for `CCCCCCCCCCCCCCCC(=O)OC/C=C(C)/C=C/C=C(C)/C=C/C1=C(C)CCCC1(C)C`, the EC50 is 275 nM.

Source of the values: PubChem BioAssay AID1595 (NINDS Approved Drug Screening Program, 2009).
